Tested on: MV-4-11 cells
Experiment: Gene expression microarray analysis (Affymetrix PrimeView) and GSEA
Type: cell-based, human
Set-up: RFU PODN (11730768_x_at) / Fold change /veh PODN (11730768_x_at) / RFU LINC00158 (11744669_a_at) / Fold change /veh LINC00158 (11744669_a_at) / RFU DUSP10 (11751237_a_at) / Fold change /veh DUSP10 (11751237_a_at) / RFU ID3 (11757404_x_at) / Fold change /veh ID3 (11757404_x_at) / RFU PLEKHG5 (11737974_s_at) / Fold change /veh PLEKHG5 (11737974_s_at) / RFU LRRC4B (11730491_at) / Fold change /veh LRRC4B (11730491_at) / RFU GIMAP4 (11747438_a_at) / Fold change /veh GIMAP4 (11747438_a_at) / RFU KRT8 (11758183_x_at) / Fold change /veh KRT8 (11758183_x_at) / RFU CNN1 (11734310_a_at) / Fold change /veh CNN1 (11734310_a_at) / RFU VPS37D (11726825_at) / Fold change /veh VPS37D (11726825_at) / RFU C10orf10 (11716522_x_at) / Fold change /veh C10orf10 (11716522_x_at) / RFU KIR2DL2 /// KIR2DL4 /// KIR2DL5A /// KIR2DL5B /// KIR2DS1 /// KIR2DS2 /// KIR2DS3 /// KIR2DS4 /// KIR3DL3 /// KIR3DL3 /// KIR3DS1 (11738374_at) / Fold change /veh KIR2DL2 /// KIR2DL4 /// KIR2DL5A /// KIR2DL5B /// KIR2DS1 /// KIR2DS2 /// KIR2DS3 /// KIR2DS4 /// KIR3DL3 /// KIR3DL3 /// KIR3DS1 (11738374_at) / RFU C1QL1 (11718748_at) / Fold change /veh C1QL1 (11718748_at) / RFU TMPRSS4 (11747572_a_at) / Fold change /veh TMPRSS4 (11747572_a_at) / RFU HAMP (11756126_x_at) / Fold change /veh HAMP (11756126_x_at) / RFU RNFT2 (11725882_a_at) / Fold change /veh RNFT2 (11725882_a_at) / RFU NR4A2 (11747474_a_at) / Fold change /veh NR4A2 (11747474_a_at) / RFU ABCC12 (11746883_a_at) / Fold change /veh ABCC12 (11746883_a_at) / RFU TMEM136 (11760407_x_at) / Fold change /veh TMEM136 (11760407_x_at) / RFU CLDN22 /// WWC2 (11732394_at) / Fold change /veh CLDN22 /// WWC2 (11732394_at) / RFU HLA-DPB1 (11760878_x_at) / Fold change /veh HLA-DPB1 (11760878_x_at) / RFU SPINT1 (11716480_a_at) / Fold change /veh SPINT1 (11716480_a_at) / RFU GAP43 (11754022_s_at) / Fold change /veh GAP43 (11754022_s_at) / RFU A4GNT (11735810_at) / Fold change /veh A4GNT (11735810_at) / RFU PRB3 (11715151_x_at) / Fold change /veh PRB3 (11715151_x_at) / RFU TUBB4B (11761932_at) / Fold change /veh TUBB4B (11761932_at) / RFU CAPN14 (11732068_a_at) / Fold change /veh CAPN14 (11732068_a_at) / RFU TMCC2 (11721928_a_at) / Fold change /veh TMCC2 (11721928_a_at) / RFU IRGQ (11745062_a_at) / Fold change /veh IRGQ (11745062_a_at) / RFU FAM174B (11720279_a_at) / Fold change /veh FAM174B (11720279_a_at) / RFU TMPRSS4 (11748680_a_at) / Fold change /veh TMPRSS4 (11748680_a_at) / RFU FAM212B (11763350_a_at) / Fold change /veh FAM212B (11763350_a_at) / RFU PLEKHG5 (11743358_a_at) / Fold change /veh PLEKHG5 (11743358_a_at) / RFU ZSCAN30 (11745921_a_at) / Fold change /veh ZSCAN30 (11745921_a_at) / RFU CMKLR1 (11741424_a_at) / Fold change /veh CMKLR1 (11741424_a_at) / RFU LOC101060620 /// MAPK8IP1 (11723275_at) / Fold change /veh LOC101060620 /// MAPK8IP1 (11723275_at) / RFU SPTSSB (11747773_x_at) / Fold change /veh SPTSSB (11747773_x_at) / RFU PRSS12 (11739890_at) / Fold change /veh PRSS12 (11739890_at) / RFU BIN1 (11741810_x_at) / Fold change /veh BIN1 (11741810_x_at) / RFU WNT11 (11732464_a_at) / Fold change /veh WNT11 (11732464_a_at) / RFU C10orf10 (11716521_a_at) / Fold change /veh C10orf10 (11716521_a_at) / RFU C5orf56 (11738089_at) / Fold change /veh C5orf56 (11738089_at) / RFU CYB561 (11721691_x_at) / Fold change /veh CYB561 (11721691_x_at) / RFU ANKRD19P (11752326_a_at) / Fold change /veh ANKRD19P (11752326_a_at) / RFU OR2T12 /// OR2T33 /// OR2T8 (11738714_s_at) / Fold change /veh OR2T12 /// OR2T33 /// OR2T8 (11738714_s_at) / RFU VCAN (11748164_a_at) / Fold change /veh VCAN (11748164_a_at) / RFU JSRP1 (11732532_at) / Fold change /veh JSRP1 (11732532_at) / RFU KRTAP10-11 (11738290_x_at) / Fold change /veh KRTAP10-11 (11738290_x_at) / RFU MYO3A (11730013_a_at) / Fold change /veh MYO3A (11730013_a_at) / RFU EBF3 (11725865_a_at) / Fold change /veh EBF3 (11725865_a_at) / RFU CAMK2N1 (11719241_x_at) / Fold change /veh CAMK2N1 (11719241_x_at) / RFU C5orf56 (11738088_a_at) / Fold change /veh C5orf56 (11738088_a_at) / RFU OLFML3 (11715873_a_at) / Fold change /veh OLFML3 (11715873_a_at) / RFU LOC100653217 /// NTM (11731650_a_at) / Fold change /veh LOC100653217 /// NTM (11731650_a_at) / RFU MAPK11 (11762145_a_at) / Fold change /veh MAPK11 (11762145_a_at) / RFU FIZ1 (11724087_x_at) / Fold change /veh FIZ1 (11724087_x_at) / RFU OASL (11726364_x_at) / Fold change /veh OASL (11726364_x_at) / RFU SOX15 (11748057_x_at) / Fold change /veh SOX15 (11748057_x_at) / RFU CD79A (11719716_a_at) / Fold change /veh CD79A (11719716_a_at) / RFU HIST1H1D (11736915_at) / Fold change /veh HIST1H1D (11736915_at) / RFU CASKIN2 (11723855_a_at) / Fold change /veh CASKIN2 (11723855_a_at) / RFU LOC730098 (11760151_x_at) / Fold change /veh LOC730098 (11760151_x_at) / RFU OR4N2 (11742367_at) / Fold change /veh OR4N2 (11742367_at) / RFU PRRT2 (11749266_a_at) / Fold change /veh PRRT2 (11749266_a_at) / RFU SNX32 (11753110_a_at) / Fold change /veh SNX32 (11753110_a_at) / RFU CDHR5 (11726645_a_at) / Fold change /veh CDHR5 (11726645_a_at) / RFU RCAN1 (11760418_a_at) / Fold change /veh RCAN1 (11760418_a_at) / RFU FAM167A (11723789_a_at) / Fold change /veh FAM167A (11723789_a_at) / RFU FAM26E (11764081_at) / Fold change /veh FAM26E (11764081_at) / RFU ISYNA1 (11749810_s_at) / Fold change /veh ISYNA1 (11749810_s_at) / RFU ACY1 (11761880_at) / Fold change /veh ACY1 (11761880_at) / RFU 11764098_at / Fold change /veh 11764098_at / RFU SAMD14 (11745864_x_at) / Fold change /veh SAMD14 (11745864_x_at) / RFU NPB (11741838_a_at) / Fold change /veh NPB (11741838_a_at) / RFU TMPRSS6 (11731388_a_at) / Fold change /veh TMPRSS6 (11731388_a_at) / RFU KRTAP10-2 (11738614_at) / Fold change /veh KRTAP10-2 (11738614_at) / RFU ARHGAP8 /// PRR5-ARHGAP8 (11727945_x_at) / Fold change /veh ARHGAP8 /// PRR5-ARHGAP8 (11727945_x_at) / RFU KRTAP5-7 /// NADSYN1 (11734609_at) / Fold change /veh KRTAP5-7 /// NADSYN1 (11734609_at) / RFU RASL12 (11751679_a_at) / Fold change /veh RASL12 (11751679_a_at) / RFU CDKN2B (11736163_a_at) / Fold change /veh CDKN2B (11736163_a_at) / RFU PRF1 (11729649_at) / Fold change /veh PRF1 (11729649_at) / RFU, ZNF638 /// ZNF638-IT1 / Fold change vs veh, ZNF638 /// ZNF638-IT1 / RFU, PANK3 / Fold change vs veh, PANK3 / RFU, SH3YL1 / Fold change vs veh, SH3YL1 / RFU, ZEB2 / Fold change vs veh, ZEB2 / RFU, NRIP1 / Fold change vs veh, NRIP1 / RFU, PTTG1IP / Fold change vs veh, PTTG1IP / RFU, CAPN2 / Fold change vs veh, CAPN2 / RFU, MED14 / Fold change vs veh, MED14 / RFU, SNORA58 / Fold change vs veh, SNORA58 / RFU, C1orf63 / Fold change vs veh, C1orf63 / RFU, LRRFIP1 / Fold change vs veh, LRRFIP1 / RFU, NDUFAF7 / Fold change vs veh, NDUFAF7 / RFU, SLC12A2 / Fold change vs veh, SLC12A2 / RFU, IBTK / Fold change vs veh, IBTK / RFU, ESF1 / Fold change vs veh, ESF1 / Fold change vs veh, TMEM50B / RFU, TAOK1 / Fold change vs veh, TAOK1 / RFU, ACBD3 / Fold change vs veh, ACBD3 / RFU, TMA16 / Fold change vs veh, TMA16 / RFU, RWDD3 / Fold change vs veh, RWDD3 / RFU, BCAT1 / Fold change vs veh, BCAT1 / RFU, EDEM3 / Fold change vs veh, EDEM3 / RFU, TMEM33 / Fold change vs veh, TMEM33 / RFU, WDR75 / Fold change vs veh, WDR75 / RFU, AHCTF1 / Fold change vs veh, AHCTF1 / RFU, TFRC / Fold change vs veh, TFRC / RFU, ZDHHC17 / Fold change vs veh, ZDHHC17 / RFU, NOM1 / Fold change vs veh, NOM1 / RFU, ARL8B / Fold change vs veh, ARL8B / RFU, ZBTB11 / Fold change vs veh, ZBTB11 / RFU, TAMM41 / Fold change vs veh, TAMM41 / RFU, KIAA1704 /// LOC100996395 / Fold change vs veh, KIAA1704 /// LOC100996395 / RFU, ING1 / Fold change vs veh, ING1 / RFU, TRMT61B / Fold change vs veh, TRMT61B / RFU, FUBP3 / Fold change vs veh, FUBP3 / RFU, TP53 / Fold change vs veh, TP53 / RFU, TNKS2 / Fold change vs veh, TNKS2 / RFU, ZFP14 / Fold change vs veh, ZFP14 / RFU, ACTR2 / Fold change vs veh, ACTR2 / RFU, PPP3R1 / Fold change vs veh, PPP3R1 / RFU, PIK3R1 / Fold change vs veh, PIK3R1 / RFU, HNRNPA1 / Fold change vs veh, HNRNPA1 / RFU, RNF170 / Fold change vs veh, RNF170 / RFU, ZNF28 / Fold change vs veh, ZNF28 / RFU, RNGTT / Fold change vs veh, RNGTT / RFU, OGT / Fold change vs veh, OGT / RFU, BRD1 / Fold change vs veh, BRD1 / RFU, MARS / Fold change vs veh, MARS / RFU, ZNF655 / Fold change vs veh, ZNF655 / RFU, FAHD1 / Fold change vs veh, FAHD1 / RFU, BDP1 / Fold change vs veh, BDP1 / RFU, LRRCC1 / Fold change vs veh, LRRCC1 / RFU, ARID1A / Fold change vs veh, ARID1A / RFU, ZNF146 / Fold change vs veh, ZNF146 / RFU, ZNF330 / Fold change vs veh, ZNF330 / RFU, GPN3 / Fold change vs veh, GPN3 / RFU, C9orf123 / Fold change vs veh, C9orf123 / RFU, N4BP2L2 / Fold change vs veh, N4BP2L2 / RFU, ARFIP1 / Fold change vs veh, ARFIP1 / RFU, FAM179B / Fold change vs veh, FAM179B / RFU, BCL10 / Fold change vs veh, BCL10 / RFU, UHRF1BP1L / Fold change vs veh, UHRF1BP1L / RFU, BET1 / Fold change vs veh, BET1 / RFU, CNOT2 / Fold change vs veh, CNOT2 / RFU, ZNF268 / Fold change vs veh, ZNF268 / Fold change vs veh, ZNF507 / RFU, DGCR2 / Fold change vs veh, DGCR2 / RFU, WDSUB1 / Fold change vs veh, WDSUB1 / Fold change vs veh, HSP90B1 /// MIR3652 / RFU, ADSS / Fold change vs veh, ADSS / RFU, GK / Fold change vs veh, GK / RFU, ZNF148 / Fold change vs veh, ZNF148 / RFU, TAF9 / Fold change vs veh, TAF9 / RFU, SLC1A5 / Fold change vs veh, SLC1A5 / RFU, SLMO2 / Fold change vs veh, SLMO2 / RFU, ABCC4 / Fold change vs veh, ABCC4 / RFU, LOC101060439 /// RAP1B / Fold change vs veh, LOC101060439 /// RAP1B / RFU, RFX7 / Fold change vs veh, RFX7 / RFU, GTPBP10 / Fold change vs veh, GTPBP10 / RFU, CNEP1R1 / Fold change vs veh, CNEP1R1 / RFU, BIVM-ERCC5 /// ERCC5 / Fold change vs veh, BIVM-ERCC5 /// ERCC5 / RFU, ILF3 / Fold change vs veh, ILF3 / RFU 11762660_at / Fold change /veh 11762660_at / RFU VCAN (11757783_s_at) / Fold change /veh VCAN (11757783_s_at) / RFU DDX43 (11728927_at) / Fold change /veh DDX43 (11728927_at) / RFU KRT8 (11758188_x_at) / Fold change /veh KRT8 (11758188_x_at) / RFU NKD1 (11759106_at) / Fold change /veh NKD1 (11759106_at) / RFU SRD5A1 (11742802_a_at) / Fold change /veh SRD5A1 (11742802_a_at) / RFU TPSAB1 /// TPSB2 (11721975_s_at) / Fold change /veh TPSAB1 /// TPSB2 (11721975_s_at) / RFU GSTM3 (11746129_a_at) / Fold change /veh GSTM3 (11746129_a_at) / RFU IL23R (11737362_x_at) / Fold change /veh IL23R (11737362_x_at) / RFU TMEM51 (11727254_a_at) / Fold change /veh TMEM51 (11727254_a_at) / RFU PIWIL2 (11732686_x_at) / Fold change /veh PIWIL2 (11732686_x_at) / RFU ORM1 (11744905_x_at) / Fold change /veh ORM1 (11744905_x_at) / RFU CCDC152 (11743942_at) / Fold change /veh CCDC152 (11743942_at) / RFU ECM1 (11717891_a_at) / Fold change /veh ECM1 (11717891_a_at) / RFU IL23R (11748794_a_at) / Fold change /veh IL23R (11748794_a_at) / RFU TNFAIP8L3 (11732012_x_at) / Fold change /veh TNFAIP8L3 (11732012_x_at) / RFU MBOAT4 (11741988_at) / Fold change /veh MBOAT4 (11741988_at) / RFU 11764193_at / Fold change /veh 11764193_at / RFU TMEM53 (11763286_at) / Fold change /veh TMEM53 (11763286_at) / RFU MAGEB2 (11727129_at) / Fold change /veh MAGEB2 (11727129_at) / RFU TMEM200A (11744735_a_at) / Fold change /veh TMEM200A (11744735_a_at) / RFU CCDC152 (11751479_a_at) / Fold change /veh CCDC152 (11751479_a_at) / RFU FAM211A (11726209_a_at) / Fold change /veh FAM211A (11726209_a_at) / RFU RGS16 (11746705_a_at) / Fold change /veh RGS16 (11746705_a_at) / RFU VCAN (11755009_s_at) / Fold change /veh VCAN (11755009_s_at) / RFU RHOB (11743442_s_at) / Fold change /veh RHOB (11743442_s_at) / RFU RGS16 (11720943_a_at) / Fold change /veh RGS16 (11720943_a_at) / RFU RGS16 (11720944_at) / Fold change /veh RGS16 (11720944_at) / RFU, VPS4B / Fold change vs veh, VPS4B / RFU, CREB1 / Fold change vs veh, CREB1 / RFU, DNAJC13 / Fold change vs veh, DNAJC13 / RFU, GNAQ / Fold change vs veh, GNAQ / RFU, CDK5R1 / Fold change vs veh, CDK5R1 / RFU, ZRANB3 / Fold change vs veh, ZRANB3 / RFU, CUL4A / Fold change vs veh, CUL4A / RFU, CCNY / Fold change vs veh, CCNY / RFU, UFL1 / Fold change vs veh, UFL1 / RFU, COG3 / Fold change vs veh, COG3 / RFU, DIAPH2 / Fold change vs veh, DIAPH2 / RFU, SKA2 / Fold change vs veh, SKA2 / RFU, AFF3 / Fold change vs veh, AFF3 / RFU, LMF1 / Fold change vs veh, LMF1 / RFU, IPO11 / Fold change vs veh, IPO11 / RFU, DFFB / Fold change vs veh, DFFB / RFU, FOXP1 / Fold change vs veh, FOXP1 / RFU, CARD8 / Fold change vs veh, CARD8 / RFU, STRN3 / Fold change vs veh, STRN3 / RFU, ADK / Fold change vs veh, ADK / RFU, RASSF2 / Fold change vs veh, RASSF2 / RFU, WIPF1 / Fold change vs veh, WIPF1 / RFU, LARP1B / Fold change vs veh, LARP1B / RFU, RASA1 / Fold change vs veh, RASA1 / RFU, RB1 / Fold change vs veh, RB1 / RFU, PPFIA1 / Fold change vs veh, PPFIA1 / RFU, MAT2A / Fold change vs veh, MAT2A / RFU, CCT5 / Fold change vs veh, CCT5 / RFU, WDR92 / Fold change vs veh, WDR92 / RFU, CUX1 / Fold change vs veh, CUX1 / RFU, TTC7A / Fold change vs veh, TTC7A / RFU, TMEM135 / Fold change vs veh, TMEM135 / RFU, DEPTOR / Fold change vs veh, DEPTOR / RFU, CPM / Fold change vs veh, CPM / RFU, DNAJB6 / Fold change vs veh, DNAJB6 / RFU, CACNA2D3 / Fold change vs veh, CACNA2D3 / RFU, DTX4 / Fold change vs veh, DTX4 / RFU, TFCP2 / Fold change vs veh, TFCP2 / RFU, GMCL1 /// GMCL1P1 / Fold change vs veh, GMCL1 /// GMCL1P1 / RFU, AEBP2 / Fold change vs veh, AEBP2 / RFU, SNHG1 /// SNORD22 /// SNORD25 /// SNORD26 /// SNORD27 /// SNORD28 /// SNORD29 /// SNORD31 / Fold change vs veh, SNHG1 /// SNORD22 /// SNORD25 /// SNORD26 /// SNORD27 /// SNORD28 /// SNORD29 /// SNORD31 / Fold change (Aza/veh), C12orf56 (ProbeSet 11735607_a_at) / Fold change (ACY-1035/veh), C12orf56 (ProbeSet 11735607_a_at) / Fold change (Aza/veh), FGFR1OP (ProbeSet 11751329_s_at) / Fold change (ACY-1035/veh), FGFR1OP (ProbeSet 11751329_s_at) / Fold change (Aza/veh), VPS36 (ProbeSet 11739960_a_at) / Fold change (ACY-1035/veh), VPS36 (ProbeSet 11739960_a_at) / RFU SYPL1 (11715823_x_at) / Fold change /veh SYPL1 (11715823_x_at) / RFU IGFBP7 (11715501_s_at) / Fold change /veh IGFBP7 (11715501_s_at) / RFU REEP3 (11722064_at) / Fold change /veh REEP3 (11722064_at) / RFU IGLL1 (11728026_x_at) / Fold change /veh IGLL1 (11728026_x_at): dose or concentration left out as unconfirmed
Details: MV-4-11 cells, 48 hours

## Nc1ncn([C@@H]2O[C@H](CO)[C@@H](O)[C@H]2O)c(=O)n1 [azacitidine]
  RFU TPSAB1 /// TPSB2 (11721975_s_at): 24.54 RFU

Source: publication PMC5218480 (PLoS ONE, 2017)
